In the NIST ThermoML archive (doi:10.1016/j.jct.2011.01.014):

Assay: xn = mol fraction of the nth substance listed
Details: 101 kPa, Liquid; for speed of sound: sound velocity cell; for mass density: Vibrating tube method

CC(=O)[O-].[NH3+]CCO [2-hydroxyethylammonium acetate] + CCO
Details | mass density, 308.15 K [kg/m3] | mass density, 310.65 K [kg/m3] | mass density, 313.15 K [kg/m3] | mass density, 315.65 K [kg/m3] | speed of sound, 305.65 K [m/s] | speed of sound, 308.15 K [m/s] | speed of sound, 310.65 K [m/s] | speed of sound, 313.15 K [m/s]
x1 = 0.0497 | 813.395 | 811.269 | 809.131 | 806.984 | 1161.8 | 1153.6 | 1145.4 | 1137.2
x1 = 0.101 | 846.797 | 844.752 | 842.694 | 840.628 | 1201.5 | 1193.5 | 1185.5 | 1177.6
x1 = 0.201 | 902.073 | 900.153 | 898.225 | 896.29 | 1273.6 | 1266 | 1258.5 | 1251
x1 = 0.3009 | 949.706 | 947.892 | 946.069 | 944.245 | 1359.9 | 1352.8 | 1345.7 | 1338.7
x1 = 0.4057 | 992.164 | 990.442 | 988.723 | 986.994 | 1421.5 | 1414.7 | 1407.8 | 1401
x1 = 0.4946 | 1023.13 | 1021.48 | 1019.83 | 1018.18 | 1483 | 1476.4 | 1469.7 | 1463.2
x1 = 0.603 | 1056.17 | 1054.53 | 1052.87 | – | 1556.5 | 1550.2 | 1544 | 1537.7
x1 = 0.6765 | 1076.23 | 1074.71 | 1073.17 | – | 1601.8 | 1595.6 | 1589.6 | 1583.5
x1 = 0.7918 | 1104.25 | 1102.76 | 1101.31 | – | 1660.8 | 1654.6 | 1648.5 | 1642.5
x1 = 0.8825 | 1123.77 | 1122.31 | 1120.85 | – | 1708.2 | 1702.2 | 1696.2 | 1690.2
x1 = 0.9539 | 1136.79 | 1135.37 | 1133.96 | – | 1748.7 | 1742.2 | 1735.9 | 1729.9
x1 = 1 | 1143.39 | 1141.96 | 1140.55 | – | 1773.4 | 1767.9 | 1762.5 | 1757.2
